# Source: patent US9193777B2, “Method of treating cardiac arrhythmia with long acting atrial natriuretic peptide(LA-ANP)” (Mayo Foundation for Medical Education and Research, priority 2009, dated 2015)
# Marks after values point to notes of the source that are not given here.
# Legend:
# [1] = system: 10 week old male FVB mice; test: Programmed electrical stimulation of the ventricles in anesthetized mice; assay type: in vivo, mouse; conditions: for ERP versus 30 minute saline group (in words) / ERP (ventricular effective refractory period) / Heart rate / PR interval / QRST interval: anesthetized mice; for ERP versus 30 minute saline group (in words): 30 minute treatment, ANOVA; for ERP (ventricular effective refractory period) / Heart rate / PR interval / QRST interval: after 30 minute peritoneal infusion 33 pmol/kg/min following 330 pmol/kg bolus, n=3; for VT score: sum over three mice, after 30 minute infusion, higher score = greater resistance to arrhythmia induction
# Experimental: Programmed electrical stimulation of the ventricles was performed across the diaphragm via bipolar electrode catheter placed through an abdominal incision in 10 week old male FVB mice anesthetized with inhaled isoflurane, and was continuously monitored by electrocardiogram. Electrophysiologic parameters were analyzed at baseline and after a 30 minute peritoneal infusion of saline vs. 33 pmol/kg/min ANP or mANP, following a 330 pmol/kg bolus. […] The ventricular tachycardia (VT) score was obtained by scoring 1 point for induction of sustained VT with a single extrastimulus, 2 points for induction with double extrastimuli, and 3 points for failure to induce with single or double extrastimuli. Nonsustained VT (less than 1 second) was not scored. The score for each of three mice in a group was added. A higher score indicates greater resistance to arrhythmia induction.
# [2] = system: isolated perfused hearts obtained from male rats; test: Isolated heart model: atrial monophasic action potential and effective refractory period; conditions: isolated rat heart; for effect on MAP duration (in words): 40-minute perfusion; for decrease in MAPD90 versus baseline: mANP n=8, ANP n=10
# Experimental: Atrial monophasic action potentials and effective refractory periods were measured in isolated perfused hearts obtained from male rats. Rapid cardiectomy was performed in male rats weighing 300-350 g, under general anesthesia with pentobarbital. The hearts were retrogradely perfused via the aorta at constant pressure and temperature (100 mmHg and 37° C.) with Kreb's-Henseleit buffer filtered at 0.22 μm and bubbled with 95% O2/5% CO2 at 37° C. and pH 7.4. Coronary perfusion flow was monitored constantly (T402, Transonic Systems, Ithaca, N.Y.) and remained >10 ml/min.
# After establishment of a stable perfused heart preparation, the posterior atria were cut away to expose the left and right atrial endocardium and the atrioventricular (AV) node was mechanically crushed, resulting in AV dissociation. The right atrium was paced (Bloom Electrophysiology, via Fischer Imaging, Denver, Colo.) at a cycle length of 150 msec with a 0.1 msec pulse width using a bipolar platinum-tipped electrode (NuMED, Inc., Hopkinton, N.Y.), while the right ventricle was paced at a cycle length of 500 msec. A monophasic action potential (MAP) probe (Harvard Apparatus, Holliston, Mass.) was maintained in a single position on the anterior left atrial endocardium. Amplified signals (IsoDam, World Precision Instruments, Sarasota, Fla.) were digitally acquired at 2 kHz (USB-6210 and LabVIEW 8.2, National Instruments, Austin, Tex.). The MAP duration was measured at 90% repolarization on atrial beats without far field ventricular interference. The effective refractory period (ERP) was measured by delivering extrastimuli via the pacing catheter at decremental coupling intervals following at least 8 beats of a 150 ms cycle-length drive train. […] In separate heart preparations, the perfusion buffer was supplemented after baseline data acquisition with 100 nM of either ANP or mANP to assess the effect of both the wild-type and mutant hormones on MAP duration and ERP.
# A two-sided t-test was used for comparison of data, assuming equal variance. Data are expressed as mean±S.E., and results were considered significant at p<0.05.
# [3] = 100 nM, 40 minutes perfusion, mean±S.E.
Compound,ERP versus 30 minute saline group (in words) [1],ERP (ventricular effective refractory period) [1],Heart rate [1],PR interval [1],QRST interval [1],VT score [1],effect on MAP duration (in words) ([2]; 100 nM),"decrease in MAPD90 versus baseline [2, 3]","reduction in effective refractory period (ERP) versus baseline ([2]; 100 nM, 40 minutes perfusion, mean±S.E., mANP n=7, ANP n=6)","effect on ERP (in words) ([2]; 100 nM, compared to wild-type ANP)","MAP duration at 90% repolarization (MAPD90), representative MAP ([2]; after 40-minute perfusion with 100 nM peptide, shortened from 47 msec at baseline)"
"CC[C@H](C)[C@@H]1NC(=O)[C@H](CCCNC(=N)N)NC(=O)[C@H](CC(=O)O)NC(=O)[C@H](CCSC)NC(=O)[C@H](CCCNC(=N)N)NC(=O)CNC(=O)CNC(=O)[C@H](Cc2ccccc2)NC(=O)[C@@H](NC(=O)[C@H](CO)NC(=O)[C@H](CO)NC(=O)[C@H](CCCNC(=N)N)NC(=O)[C@H](CCCNC(=N)N)NC(=O)[C@H](CC(C)C)NC(=O)[C@@H](N)CO)CSSC[C@@H](C(=O)N[C@@H](CC(N)=O)C(=O)N[C@@H](CO)C(=O)N[C@@H](Cc2ccccc2)C(=O)N[C@@H](CCCNC(=N)N)C(=O)N[C@@H](Cc2ccc(O)cc2)C(=O)O)NC(=O)CNC(=O)[C@H](CC(C)C)NC(=O)CNC(=O)[C@H](CO)NC(=O)[C@H](CCC(N)=O)NC(=O)[C@H](C)NC(=O)CNC1=O [ANP, atrial natriuretic peptide]",not a significant difference,28 + 2 msec,255 + 8 min^−1,73 + 4 msec,23 + 1 msec,3,not significantly changed,0.7 ± 1.7 ms,,,
mANP: Full-length 40-amino acid mutant ANP: normal 28-amino acid mature peptide plus an anomalous carboxyl-terminus of 12 residues (SLRRSSCFGGRMDRIGAQSGLGCNSFRYRITAREDKQGWA; listed as Homo sapiens),significantly shorter,19 + 4* msec,243 + 16 min^−1,76 + 4 msec,26 + 1 msec,5,significant shortening,9 ± 2 ms,7.1 ± 2.4 ms,significant shortening,41 ms
